Measured values taken from PMC8951750, “In Vitro Anticancer and Cancer-Preventive Activity of New Triterpene Glycosides from the Far Eastern Starfish Solaster pacificus” (Marine Drugs, 2022).
“And” between values parts separate entries of the source, which are not always exact repeats. Equal values may be shown once. Read-outs that look alike come from different tables or passages of the source.

What was measured:
[1] = tested on: non-cancerous mouse epidermal cells JB6 Cl41; experiment: Cell viability, MTS assay, JB6 Cl41; assay type: cell-based
Method: (§1) MTS assay was used to measure the cell viability of tested normal and cancer cells. Cells were seeded into 96-well plates (“Jet Biofil”, Guangzhou, China) at density of 1.0 × 10^4/200 µL for 24 h at 37 °C in a 5% CO2 incubator. Then, cell monolayer was treated either with DMSO (control) or various concentrations of the triterpene glycosides 1–9 from S. pacificus (0.1, 0.5, 2.5, 12.5, 62.5 µM) in fresh appropriate culture medium for 24 h. Subsequently, the cells were incubated with 15 µL of 3-(4,5-dimethylthiazol-2-yl)-5-(3-carboxymethoxyphenyl)-2-(4-sulfophenyl)-2H-tetrazolium (MTS reagent) (“Promega”, Madison, WI, USA) for 3 h, and the absorbance of each well was measured at 490/630 nm using Power Wave XS microplate reader (“BioTek”, Wynusky, VT, USA). The concentration at which the compounds exert half of their maximal inhibitory effect on cell viability (IC50) was calculated by the AAT-Bioquest® online calculator [39]. The selectivity index (SI) was calculated as described previously using the following formula SI = IC50 of the compounds in normal cell (JB6 Cl41)/IC50 of the same compounds in human melanoma cell lines (SK-MEL-2, SK-MEL-28, or RPMI-7951).

[2] = tested on: human melanoma cells SK-MEL-2; experiment: Cell viability, MTS assay, SK-MEL-2; assay type: cell-based; details: for SI (selectivity index) SK-MEL-2: IC50 JB6 Cl41 / IC50 SK-MEL-2
Method: as §1

[3] = tested on: human melanoma cells SK-MEL-28; experiment: Cell viability, MTS assay, SK-MEL-28; assay type: cell-based; details: for SI (selectivity index) SK-MEL-28: IC50 JB6 Cl41 / IC50 SK-MEL-28
Method: as §1

[4] = tested on: human melanoma cells RPMI-7951; experiment: Cell viability, MTS assay, RPMI-7951; assay type: cell-based; details: for SI (selectivity index) RPMI-7951: IC50 JB6 Cl41 / IC50 RPMI-7951
Method: as §1

[5] = tested on: Human erythrocytes (O(I)+); experiment: Hemolysis assay; assay type: cell-based; details: 1 h, 37 °C, PBS pH 7.4
Method: Human erythrocytes (O(I)+) were obtained from Vladivostok blood transfusion station. Erythrocytes were centrifuged with PBS (pH 7.4) for 5 min at 4 °C by 450× g on a LABOFUGE 400R (Heraeus, Hanau, Germany) centrifuge three times. Then, the residue of erythrocytes was resuspended in ice-cold PBS (pH 7.4) to a final optical density of 2.0 at 700 nm and kept on ice. For the hemolytic assay, 180 µL of erythrocyte suspension was mixed with 20 µL of Cucumarioside A2-2 (positive control) and investigated compounds at concentrations range of 0.1, 0.5, 1, 5, 10 µM in V-bottom 96-well plates. After 1 h of incubation at 37 °C, plates were centrifuged at 900× g for 10 min on an LMC-3000 (Biosan, Riga, Latvia) laboratory centrifuge. Then, we carefully selected 100 µL of supernatant and transferred it to new flat plates, respectively. Lysis of erythrocytes was determined by measuring the concentration of hemoglobin in the supernatant with a microplate photometer Multiskan FC (Thermo Fisher Scientific, Waltham, MA, USA) at 570 nm. The effective dose causing 50% of erythrocytes hemolysis (ED50) was calculated using the computer program SigmaPlot 10.0. All experiments were made in triplicate, p < 0.01.

JB6 Cl41 cells [6] = experiment: Soft agar assay, EGF-induced neoplastic cell transformation; assay type: cell-based, mouse; details: compound 0.1 µM, EGF 1 ng/mL, soft agar, 2 weeks, vs positive control; for inhibition of EGF-induced neoplastic transformation of JB6 Cl41 cells: 0.1 µM
Method: (§2) JB6 Cl41 cells (2.4 × 10^4) were exposed to epidermal growth factor (EGF) (1 ng/mL) or phorbol 12-myristate 13-acetate (TPA) (10 ng/mL) and treated either with DMSO (control) or the triterpene glycosides 1–9 from S. pacificus (0.1, 0.5, and 1 µM) in 1 mL of 0.3% basal medium Eagle (BME) agar containing 10% FBS, 2 mM L-glutamine, and 25 µg/mL gentamicin (agar mix). The cultures were maintained in a humidified atmosphere with 5% CO2 at 37 °C for 14 days, and the cell’s colonies were scored using a microscope, Motic AE 20 (XiangAn, Xiamen, China), and the ImageJ software bundled with 64-bit Java 1.8.0_112 (NIH, Bethesda, MD, USA). To determine the effect of investigated compounds on neoplastic cell transformation induced by ionizing radiation (X-ray or UVB), JB6 Cl41 cells (3 × 10^5/dish) were seeded in 60 mm dishes and cultured for 24 h at 37 °C in 5% CO2 incubator. Then, the cells were exposed to X-rays (X-ray system XPERT 80 (KUB Technologies, Inc, Milford, CT, USA)) at dose of 0.5 Gy or UVB (wavelengths below 312 nm) (Bio-Link UV irradiation system, Vilber, France) at dose of 0.3 J/cm^2 three times a week for 3 weeks. Irradiated JB6 Cl41 cells (2.4 × 10^4) were treated either with DMSO (control) or the triterpene glycosides 1–9 from S. pacificus (0.1, 0.5, and 1 µM) in 1 mL of agar mix. The cultures were maintained in a humidified atmosphere with 5% CO2 at 37 °C for 14 days, and the cell’s colonies were scored using a microscope, Motic AE 20 (XiangAn, Xiamen 361101, China), and the ImageJ software bundled with 64-bit Java 1.8.0_112 (NIH, Bethesda, MD, USA).

JB6 Cl41 cells [7] = experiment: Soft agar assay, TPA-induced neoplastic cell transformation; assay type: cell-based, mouse; details: compound 0.1 µM, TPA 10 ng/mL, soft agar, 2 weeks, vs positive control; for inhibition of TPA-induced neoplastic transformation of JB6 Cl41 cells: 0.1 µM
Method: as §2

JB6 Cl41 cells [8] = experiment: Soft agar assay, X-ray-induced neoplastic cell transformation; assay type: cell-based, mouse; details: for inhibition at 0.1 µM: Mus musculus, JB6 Cl41, 504 h
Method: as §2

JB6 Cl41 cells [9] = experiment: Soft agar assay, UVB-induced neoplastic cell transformation; assay type: cell-based, mouse; details: for inhibition at 0.1 µM: Mus musculus, JB6 Cl41, light or radiation study, 504 h, read-out: inhibition of UVB-induced neoplastic cell transformation (decrease of colonies number), compound 0.1 µM, UVB 0.3 J/cm^2 three times a week for 3 weeks, soft agar; for inhibition of UVB-induced neoplastic cell transformation (decrease of colonies number): compound 0.1 µM, UVB 0.3 J/cm^2 three times a week for 3 weeks, soft agar
Method: as §2

SK-MEL-2 cells = experiment: Soft agar assay, colony formation of cancer cells; assay type: cell-based, human; details: compound 0.1 µM, 14 days
Method: SK-MEL-2 cells (2.4 × 10^4) were treated either with DMSO (control) or the triterpene glycosides 1–9 from S. pacificus (0.1 µM) in 1 mL of agar mix. After 14 days, colonies of cancer cells were scored as described above.

[10] = read-out: IC50, cell viability SK-MEL-2, MTS assay, 24 h
[11] = read-out: inhibition of X-ray-induced cell transformation (JB6 Cl41 colonies formation), compound 0.1 µM, X-rays 0.5 Gy three times a week for 3 weeks, soft agar
[12] = MTS assay, 24 h, normal cells, read-out: IC50, cell viability JB6 Cl41

SMILES	IC50 [2, 10] [µM]	SI (selectivity index) RPMI-7951 [4]	ED50, effective dose causing 50% of erythrocytes hemolysis [5]	inhibition of EGF-induced neoplastic transformation of JB6 Cl41 cells (JB6 Cl41 cells [6]) [%]	inhibition of TPA-induced neoplastic transformation of JB6 Cl41 cells (JB6 Cl41 cells [7]) [%]	inhibition at 0.1 µM (JB6 Cl41 cells [8]; [11]) [%]	inhibition at 0.1 µM (JB6 Cl41 cells [9]) [%]	decrease of colonies number of SK-MEL-2 cells (colony formation) (SK-MEL-2 cells) [%]	IC50 [1, 12] [µM]	SI (selectivity index) SK-MEL-2 [2]	SI (selectivity index) SK-MEL-28 [3]	inhibition of UVB-induced neoplastic cell transformation (decrease of colonies number) (JB6 Cl41 cells [9])	further results
COC1C(O)C(CO)OC(OC2C(O)C(CO)OC(OC3C(C)OC(OC4C(OC5CCC6(C)C7CCC89C(=O)OC(C)(C=CC=C(C)C)C8C(OC(C)=O)CC9(C)C7=CCC6C5(C)C)OCC(O)C4O)C(OC4OCC(O)C(O)C4O)C3O)C2O)C1O (stereo not drawn) [Compound 4, cucumarioside D]	0.67 ± 0.04	0.2	2.48 µM and 2.48 ± 0.05 µM	92	99	97	86	70	–	–	–	–	IC50 ([1]; read-out: IC50, cell viability JB6 Cl41, MTS assay, 24 h, normal cells): 6.1 ± 0.4 µM; IC50 ([3]; read-out: IC50, cell viability SK-MEL-28, MTS assay, 24 h): 8.3 ± 0.1 µM; IC50 ([4]; read-out: IC50, cell viability RPMI-7951, MTS assay, 24 h): 29.2 ± 0.04 µM
CC(=O)OC1CC2(C)C3=CCC4C(C)(C)C(OC5OCC(O)C(O)C5OC5OC(C)C(OC6OC(CO)C(O)C(O)C6O)C(O)C5OC5OCC(O)C(O)C5O)CCC4(C)C3CCC23C(=O)OC(C)(C=CC=C(C)C)C13 [Compound 2, 3β-O-{β-D-glucopyranosyl-(1→4)-[β-D-xylopyranosyl-(1→2)]-β-D-quinovopyranosyl-(1→2)-β-D-xylopyranosyl}-16β-acetoxyholosta-7,22E,24-triene]	–	0.87	4.08 ± 0.36 µM	–	–	–	–	3	31.5 ± 4.1	0.8	1.0	not effective	IC50 ([2]; Homo sapiens, SK-MEL-2, 24 h, MTS assay, 24 h, read-out: IC50, cell viability SK-MEL-2): 37.6 ± 0.2 µM; IC50 ([3]; Homo sapiens, SK-MEL-28, 24 h, MTS assay, 24 h, read-out: IC50, cell viability SK-MEL-28): 29 ± 0.02 µM; IC50 ([4]; Homo sapiens, RPMI-7951, 24 h, MTS assay, 24 h, read-out: IC50, cell viability RPMI-7951): 36.4 ± 0.2 µM; inhibition at 0.1 µM (JB6 Cl41 cells [6]; Mus musculus, JB6 Cl41, 336 h, read-out: inhibition of EGF-induced neoplastic transformation of JB6 Cl41 cells): 25%; inhibition at 0.1 µM (JB6 Cl41 cells [7]; Mus musculus, JB6 Cl41, 336 h, read-out: inhibition of TPA-induced neoplastic transformation of JB6 Cl41 cells): 18%; inhibition at 0.1 µM (JB6 Cl41 cells [8]; compound 0.1 µM, X-rays 0.5 Gy three times a week for 3 weeks, soft agar, read-out: inhibition of X-ray-induced cell transformation (JB6 Cl41 colonies formation)): < 15%
CC(=O)OC1CC2(C)C3=CCC4C(C)(C)C(OC5OCC(O)C(O)C5OC5OC(C)C(OC6OC(CO)C(O)C(O)C6O)C(O)C5OC5OCC(O)C(O)C5O)CCC4(C)C3CCC23C(=O)OC(C)(C=CC=C(C)C)C13 [Compound 5, 3β-O-{β-D-glucopyranosyl-(1→4)-[β-D-xylopyranosyl-(1→2)]-β-D-quinovopyranosyl-(1→2)-β-D-xylopyranosyl}-16β-acetoxyholosta-7,22Z,24-triene]	–	0.23	7.02 ± 0.46 µM	16	17	–	–	13	8.7 ± 0.2	0.2	0.3	not effective	IC50 ([2]; MTS assay, 24 h, read-out: IC50, cell viability SK-MEL-2): 37.3 ± 0.01 µM; IC50 ([3]; MTS assay, 24 h, read-out: IC50, cell viability SK-MEL-28): 25.3 ± 0.09 µM; IC50 ([4]; MTS assay, 24 h, read-out: IC50, cell viability RPMI-7951): 38 ± 0.3 µM; inhibition of X-ray-induced cell transformation (JB6 Cl41 colonies formation) (JB6 Cl41 cells [8]; compound 0.1 µM, X-rays 0.5 Gy three times a week for 3 weeks, soft agar): less than 15%
COC1C(O)COC(OC2C(O)C(COS(=O)(=O)O)OC(OC3C(C)OC(OC4C(OC5CCC6(C)C7CCC89C(=O)OC(C)(C=CC=C(C)C)C8C(OC(C)=O)CC9(C)C7=CCC6C5(C)C)OCC(O)C4O)C(O)C3O)C2O)C1O [Compound 3, 3β-O-{3-O-methyl-β-D-xylopyranosyl-(1→3)-6-sulfoxy-β-D-glucopyranosyl-(1→4)-β-D-quinovopyranosyl-(1→2)-β-D-xylopyranosyl}-16β-acetoxyholosta-7,22E,24-triene]	0.68 ± 0.06	0.22	0.72 µM and 0.72 ± 0.05 µM	70	36	26	13	34	–	8.8	0.4	–	IC50 ([1]; Mus musculus, JB6 Cl41, 24 h, read-out: IC50, cell viability JB6 Cl41, MTS assay, 24 h, normal cells): 6 ± 0.1 µM; IC50 ([2]; Homo sapiens, SK-MEL-2, 24 h, read-out: IC50, cell viability SK-MEL-2, MTS assay, 24 h): < 1 µM; IC50 ([3]; Homo sapiens, SK-MEL-28, 24 h, read-out: IC50, cell viability SK-MEL-28, MTS assay, 24 h): 14.8 ± 0.03 µM; IC50 ([4]; Homo sapiens, RPMI-7951, 24 h, read-out: IC50, cell viability RPMI-7951, MTS assay, 24 h): 27.9 ± 0.09 µM
